Patent US20240010993A1, “CELL CULTURE CHAMBER AND METHOD FOR CULTURING CELLS AND FOR THE IN VITRO PRODUCTION OF CELL LAYERS AND ORGAN MODELS” (Dynamic42 GmbH, priority 2021, published 2024)

What was measured:
[1] = after 24 hours in PDMS chips; binds irreversibly to PDMS; cited from earlier work
[2] = adsorption effect of PBT in cell culture chambers (active substance adsorption); assay type: physicochemical; conditions: after 24 hours; both embodiments Chip PBT-BC1 and Chip PBT-BC2; control stock solution propiconazole 100 μM, troglitazone 64 μM
Protocol: After an incubation period of 24 h, at least 80% of the starting concentration of the propiconazole or the troglitazone is detectable in the culture medium (cf. FIG. 3A, FIG. 3B).
FIGS. 3A and 3B show results of experiments on the adsorption effect of PBT in two cell culture chambers 1 according to the disclosure of different designs. The designation, “Chip PBT-BC1,” denotes a first embodiment of the cell culture chamber 1, and “Chip PBT-BC2” a second embodiment. The first embodiment has a width B of 34.6 mm, a depth T of 6.56 mm, and a height H of 0.7 mm for the first channel 3. The second channel 4 has the dimensions of 44.8 mm, 3.6 mm, and 0.8 mm (W/D/H). The corresponding dimensions for the second embodiment, “Chip PBT-BC2,” of the cell culture chamber 1 are 34.6 mm, 8.06 mm, and 0.7 mm (W/D/H) for the first channel 3 and 49.4 mm, 5.61 mm, and 1.0 mm (B/T/H) for the second channel 4.
In comparison, a control in the form of a stock solution (100 μM) with propiconazole is given. […] In each case, it can be seen from the two graphics that, in both embodiments of the cell culture chamber 1 according to the disclosure, more than 85% of the propiconazole (FIG. 3A) and more than 80% of the troglitazone (FIG. 3B) in the culture medium 7 could be detected even after 24 hours.

[3] = cited from earlier work
[4] = tested on: macrophages in co-culture with liver sinusoidal endothelial cells and hepatocytes; assay: LPS addition to liver model to check activatability of immune cells (cytokine release); assay type: cell-based; conditions: LPS added at the tenth and fourteenth day of culture; FIG. 8
Protocol: In addition, lipopolysaccharide (LPS) was added to some samples at the tenth day and the fourteenth day to check the activatability of immune cells (macrophages) contained in the liver model, and the respective reactions were shown. The addition of LPS as a so-called pyrogenic substance represents a test for endotoxins that is customary in the art. Immune cells such as macrophages respond to this stimulus with increased release of cytokines. […] It can be deduced from this that macrophages in co-culture with the investigated liver sinusoidal endothelial cells and hepatocytes were capable of reacting with an immune response to an endotoxin even after 10 or after 14 days. This is important for being able to detect immune cell-mediated side effects of drugs.

CCCC1COC(Cn2cncn2)(c2ccc(Cl)cc2Cl)O1 (stereo not shown) [propiconazole]
detected fraction of the starting concentration in the culture medium [1]: less than 30%
percentage (RTC - ratio to control) remaining and detectable in the culture medium [2]: more than 85%

Cc1c(C)c2c(c(C)c1O)CCC(C)(COc1ccc(CC3SC(=O)NC3=O)cc1)O2 (stereo not shown) [troglitazone]
log P [3]: 3.60

lipopolysaccharide [LPS]
concentration of IL-1beta after the addition of LPS [4]: distinct increase
